# Key:
# Assay in all cases: relative viability (nuclei count vs DMSO), 5 days (fraction); higher = more cells survive
# [1] = compound: N#CC[C@H](C1CCCC1)n1cc(-c2ncnc3[nH]ccc23)cn1 [Ruxolitinib] + CC(=O)c1c(C)c2cnc(Nc3ccc(N4CCNCC4)cn3)nc2n(C2CCCC2)c1=O [Palbociclib] (partner 0.5 µM)
# Summary of the method: (§1)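 The day after seeding in 1536-well plates, lung cancer cell lines were treated by pin tool with a single drug, or with a fixed anchor-drug dose together with five library-drug doses (not always all listed) in √10 steps. After 5 days, a combined fix-and-stain solution (final 0.05% Triton X-100, 1% formaldehyde, 1 ug/ml Hoechst) was added. Nuclei counted on 4× images gave relative viability as treated counts over vehicle counts, reported as the median of duplicate plates.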
# Ruxolitinib + Lapatinib = compound: N#CC[C@H](C1CCCC1)n1cc(-c2ncnc3[nH]ccc23)cn1 [Ruxolitinib] + CS(=O)(=O)CCNCc1ccc(-c2ccc3ncnc(Nc4ccc(OCc5cccc(F)c5)c(Cl)c4)c3c2)o1 [Lapatinib] (partner 2 µM)
# Summary of the method: as §1
# Ruxolitinib + Luminespib = compound: N#CC[C@H](C1CCCC1)n1cc(-c2ncnc3[nH]ccc23)cn1 [Ruxolitinib] + CCNC(=O)c1noc(-c2cc(C(C)C)c(O)cc2O)c1-c1ccc(CN2CCOCC2)cc1 [Luminespib] (partner 0.01 µM)
# Summary of the method: as §1
# Vismodegib + Navitoclax = compound: CS(=O)(=O)c1ccc(C(=O)Nc2ccc(Cl)c(-c3ccccn3)c2)c(Cl)c1 [Vismodegib] + CC1(C)CCC(c2ccc(Cl)cc2)=C(CN2CCN(c3ccc(C(=O)NS(=O)(=O)c4ccc(N[C@H](CCN5CCOCC5)CSc5ccccc5)c(S(=O)(=O)C(F)(F)F)c4)cc3)CC2)C1 [Navitoclax] (partner 0.5 µM)
# Summary of the method: as §1
Cell Line,relative viability ([1]; first compound 0.08 µM),relative viability ([1]; first compound 0.253 µM),relative viability ([1]; first compound 0.8 µM),relative viability ([1]; first compound 2.53 µM),relative viability ([1]; first compound 8 µM),relative viability (Ruxolitinib + Lapatinib; first compound 0.08 µM),relative viability (Ruxolitinib + Lapatinib; first compound 0.253 µM),relative viability (Ruxolitinib + Lapatinib; first compound 0.8 µM),relative viability (Ruxolitinib + Lapatinib; first compound 2.53 µM),relative viability (Ruxolitinib + Lapatinib; first compound 8 µM),relative viability (Ruxolitinib + Luminespib; first compound 0.08 µM),relative viability (Ruxolitinib + Luminespib; first compound 0.253 µM),relative viability (Ruxolitinib + Luminespib; first compound 0.8 µM),relative viability (Ruxolitinib + Luminespib; first compound 2.53 µM),relative viability (Ruxolitinib + Luminespib; first compound 8 µM),relative viability (Vismodegib + Navitoclax; first compound 0.08 µM),relative viability (Vismodegib + Navitoclax; first compound 0.253 µM),relative viability (Vismodegib + Navitoclax; first compound 0.8 µM),relative viability (Vismodegib + Navitoclax; first compound 2.53 µM),relative viability (Vismodegib + Navitoclax; first compound 8 µM)
LXF-289,0.539,0.598,0.626,0.599,0.565,0.849,0.891,0.861,0.825,0.786,0.608,0.784,0.732,0.674,0.628,0.919,0.931,0.935,0.917,0.917
NCI-H23,0.538,0.485,0.604,0.426,0.34,1.03,1.27,1.2,0.775,0.852,0.195,0.209,0.242,0.214,0.191,0.89,0.735,0.926,0.811,0.86
NCI-H322M,0.503,0.488,0.536,0.645,0.563,0.638,0.68,0.67,0.687,0.873,0.806,0.927,0.918,0.984,1.17,1.19,1.3,1.14,1.23,1.07
NCI-H460,0.173,0.159,0.165,0.0961,0.155,0.95,1.06,1.21,0.759,1.08,0.0343,0.0362,0.0405,0.0294,0.027,1.01,0.995,1.28,1.06,1.21
NCI-H520,0.243,0.218,0.251,0.204,0.258,,0.815,1.04,0.588,0.671,0.211,0.209,0.236,0.215,0.241,1.06,1.12,0.941,1.12,1.09
NCI-H647,0.523,0.443,0.44,0.344,0.346,1.11,1.09,1.19,0.651,1.02,0.18,0.228,0.367,0.0851,0.144,,1.02,1.18,1.03,1.28
NCI-H727,0.539,0.676,0.586,0.611,0.713,0.904,1.03,1.09,0.777,0.821,0.3,0.357,0.655,0.35,0.2,0.496,0.428,0.453,0.36,0.386
NCI-H838,0.254,0.223,0.227,0.164,0.159,1,0.803,0.873,0.446,0.406,0.218,0.233,0.316,0.239,0.221,1.1,1.23,1.11,1.21,1.18
NCI-H1355,0.416,0.371,0.429,0.402,0.368,0.939,0.898,1.01,0.902,0.863,0.751,0.721,0.772,0.616,0.687,0.931,1.06,0.863,0.913,0.952
NCI-H1395,0.596,0.555,0.674,0.636,0.572,,0.879,1.16,0.777,0.944,0.89,0.661,0.863,0.623,0.592,1.02,1.09,1.01,1.11,1.23
NCI-H1437,0.541,0.41,0.448,0.417,0.378,0.976,0.883,0.926,0.695,0.57,1.16,1.26,1.2,1.13,0.908,0.945,1.08,1.09,1.07,1.1
NCI-H1650,0.333,0.345,0.395,0.287,0.356,,0.826,1.05,0.761,0.89,,0.196,0.198,0.214,0.197,1.14,1.27,1.2,1.17,1.14
NCI-H1651,0.506,0.496,0.524,0.502,0.525,0.958,0.92,0.884,0.767,0.903,0.883,0.902,0.979,0.73,0.726,0.954,0.956,0.984,0.885,1.11
NCI-H1666,0.66,0.613,0.654,0.675,0.632,0.584,0.629,0.738,0.844,0.656,1,1.1,1.05,1.01,0.972,1.08,1.02,1.15,0.936,0.934
NCI-H1734,0.374,0.299,0.337,0.345,0.354,1.09,1,1.21,0.87,0.936,0.167,0.197,0.198,0.162,0.185,0.878,0.835,0.846,0.77,0.897
NCI-H1755,0.505,0.468,0.466,0.452,0.391,1.05,1.02,1.04,0.977,0.722,0.452,0.45,0.699,0.351,0.362,0.961,0.957,1.04,0.934,0.985

Cell Line,relative viability ([1]; first compound 0.08 µM),relative viability ([1]; first compound 0.253 µM),relative viability ([1]; first compound 0.8 µM),relative viability ([1]; first compound 2.53 µM),relative viability ([1]; first compound 8 µM),relative viability (Ruxolitinib + Lapatinib; first compound 0.08 µM),relative viability (Ruxolitinib + Lapatinib; first compound 0.253 µM),relative viability (Ruxolitinib + Lapatinib; first compound 0.8 µM),relative viability (Ruxolitinib + Lapatinib; first compound 2.53 µM),relative viability (Ruxolitinib + Lapatinib; first compound 8 µM),relative viability (Ruxolitinib + Luminespib; first compound 0.08 µM),relative viability (Ruxolitinib + Luminespib; first compound 0.253 µM),relative viability (Ruxolitinib + Luminespib; first compound 0.8 µM),relative viability (Ruxolitinib + Luminespib; first compound 2.53 µM),relative viability (Ruxolitinib + Luminespib; first compound 8 µM),relative viability (Vismodegib + Navitoclax; first compound 0.08 µM),relative viability (Vismodegib + Navitoclax; first compound 0.253 µM),relative viability (Vismodegib + Navitoclax; first compound 0.8 µM),relative viability (Vismodegib + Navitoclax; first compound 2.53 µM),relative viability (Vismodegib + Navitoclax; first compound 8 µM)
NCI-H1792,0.595,0.565,0.631,0.632,0.575,0.936,0.831,0.846,0.845,0.824,0.407,0.447,0.473,0.517,0.434,0.634,0.655,0.588,0.616,0.619
NCI-H1793,0.291,0.287,0.307,0.319,0.335,0.647,0.665,0.905,0.896,0.493,0.221,0.204,0.169,0.156,0.136,,0.481,0.504,0.522,0.373
NCI-H1915,0.515,0.516,0.579,0.443,0.481,0.973,1,0.927,0.999,0.798,0.711,0.762,0.83,0.578,0.503,0.773,0.805,0.747,0.729,0.759
NCI-H1944,0.33,0.321,0.375,0.31,0.318,0.823,0.903,0.798,0.729,0.815,0.696,0.628,0.723,0.73,0.716,0.994,1.05,1.04,1.02,0.999
NCI-H1975,0.492,0.395,0.612,0.469,0.277,0.952,0.955,0.831,0.71,0.858,0.172,0.191,0.241,0.232,0.153,1.2,1.06,1.22,1.08,1.09
NCI-H1993,0.519,0.552,0.807,0.68,0.707,0.821,0.696,0.977,0.863,0.78,0.758,0.784,0.863,0.508,0.803,1.1,0.913,0.884,0.759,0.705
NCI-H2009,0.289,0.216,0.241,0.154,0.139,1.05,0.997,1.09,0.737,0.633,0.99,1.1,0.99,0.93,0.817,1.15,1.12,1.2,1.17,1.17
NCI-H2023,0.42,0.4,0.361,0.387,0.397,0.921,0.693,1.75,0.807,0.728,0.73,0.74,0.674,0.438,0.568,0.937,1.09,1.08,0.995,0.96
NCI-H2085,0.453,0.468,0.474,0.39,0.369,0.853,0.67,1,0.725,0.806,0.418,0.48,0.486,0.403,0.352,1.11,1.06,1.12,1.06,1.12
NCI-H2087,0.26,,0.271,0.18,0.239,1.05,1.1,1.16,0.786,1.04,0.158,0.15,0.172,0.233,0.17,0.952,0.969,0.961,0.954,0.943
NCI-H2126,0.382,0.333,0.371,0.363,0.363,0.907,0.776,0.837,0.874,0.878,0.879,0.922,1.13,0.933,0.784,0.838,0.846,0.864,0.802,0.766
NCI-H2170,0.382,0.39,0.412,0.359,0.407,0.303,0.253,0.302,0.276,0.301,0.687,0.509,0.954,0.643,0.817,0.683,0.602,0.755,0.473,0.617
NCI-H2228,0.622,0.812,0.843,0.713,0.219,0.972,1.17,1.22,0.82,0.664,0.131,0.146,0.118,0.144,0.148,0.838,1.1,0.932,0.741,0.901
NCI-H2347,0.425,0.395,0.42,0.43,0.478,0.825,0.964,0.912,0.836,0.734,0.519,0.456,0.41,0.302,0.676,0.735,0.821,0.766,0.763,0.792
NCI-H2405,0.52,0.514,0.589,0.295,0.389,,1,1.23,0.879,0.643,,0.654,0.838,0.481,0.476,,0.93,0.86,0.712,0.904
NCI-H3122,0.182,0.228,0.208,0.166,0.191,0.928,1.04,0.98,0.848,0.934,0.13,0.108,0.0859,0.0958,0.113,1.01,1.04,0.994,0.984,1.02

# Reference: the supplement of paper PMC10307832
